pIC50: −log10 of the molar value. Activity calls are given as the source filed them. The calls are words filed in the database; no cut-off is given here.
Experiments:
[1] = target: DNA topoisomerase 2-alpha (Homo sapiens) (UniProt P11388); experiment: Inhibition of Topoisomerase 2 (unknown origin) assessed as impairment of pBR322 DNA decatenation at 100 uM after 30 mins by agarose gel electrophoresis
[2] = target: T1, Protein deacetylase HDAC6 (Homo sapiens, UniProt Q9UBN7); experiment: Inhibition of human recombinant HDAC6 expressed in baculovirus infected insect high5 cells using Boc-Lys (epsilon-acetyl)-AM) as substrate after 3 to 24 hrs by fluorescence assay
T1 sequence (Q9UBN7 whole entry): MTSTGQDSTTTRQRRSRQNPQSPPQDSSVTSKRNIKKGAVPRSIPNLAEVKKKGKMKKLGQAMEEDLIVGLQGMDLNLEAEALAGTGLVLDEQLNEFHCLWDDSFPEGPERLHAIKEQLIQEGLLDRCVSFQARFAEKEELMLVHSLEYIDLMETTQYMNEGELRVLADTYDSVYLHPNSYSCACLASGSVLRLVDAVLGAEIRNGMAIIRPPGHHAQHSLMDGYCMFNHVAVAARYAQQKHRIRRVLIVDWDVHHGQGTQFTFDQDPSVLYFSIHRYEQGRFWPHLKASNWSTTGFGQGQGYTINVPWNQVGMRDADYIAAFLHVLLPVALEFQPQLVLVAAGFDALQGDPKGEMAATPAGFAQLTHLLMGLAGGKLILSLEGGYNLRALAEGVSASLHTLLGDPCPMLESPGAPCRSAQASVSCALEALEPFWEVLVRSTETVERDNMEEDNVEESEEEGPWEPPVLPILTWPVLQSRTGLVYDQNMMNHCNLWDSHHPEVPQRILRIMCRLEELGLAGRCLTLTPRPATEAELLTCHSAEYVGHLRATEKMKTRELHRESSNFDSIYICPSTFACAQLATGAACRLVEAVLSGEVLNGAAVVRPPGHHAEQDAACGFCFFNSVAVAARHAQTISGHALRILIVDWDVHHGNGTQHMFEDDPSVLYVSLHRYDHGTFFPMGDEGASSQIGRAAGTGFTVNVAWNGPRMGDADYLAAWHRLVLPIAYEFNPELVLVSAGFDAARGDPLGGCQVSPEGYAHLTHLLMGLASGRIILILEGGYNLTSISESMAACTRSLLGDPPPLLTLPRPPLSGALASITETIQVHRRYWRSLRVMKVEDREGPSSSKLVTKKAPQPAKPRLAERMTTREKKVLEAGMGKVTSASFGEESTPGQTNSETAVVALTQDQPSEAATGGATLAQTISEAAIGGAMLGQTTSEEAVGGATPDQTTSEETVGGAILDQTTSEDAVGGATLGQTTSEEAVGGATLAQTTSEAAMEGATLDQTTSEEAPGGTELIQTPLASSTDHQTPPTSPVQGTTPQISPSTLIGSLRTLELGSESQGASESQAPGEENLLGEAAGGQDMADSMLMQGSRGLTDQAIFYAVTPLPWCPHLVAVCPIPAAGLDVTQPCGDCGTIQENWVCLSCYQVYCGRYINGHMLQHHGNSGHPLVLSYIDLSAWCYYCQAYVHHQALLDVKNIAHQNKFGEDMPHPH

Histone deacetylase 2 = Histone deacetylase 2 (Homo sapiens, UniProt Q92769); experiment: Inhibition of HDAC2 (unknown origin)
Sequence of Histone deacetylase 2 (Q92769 whole entry): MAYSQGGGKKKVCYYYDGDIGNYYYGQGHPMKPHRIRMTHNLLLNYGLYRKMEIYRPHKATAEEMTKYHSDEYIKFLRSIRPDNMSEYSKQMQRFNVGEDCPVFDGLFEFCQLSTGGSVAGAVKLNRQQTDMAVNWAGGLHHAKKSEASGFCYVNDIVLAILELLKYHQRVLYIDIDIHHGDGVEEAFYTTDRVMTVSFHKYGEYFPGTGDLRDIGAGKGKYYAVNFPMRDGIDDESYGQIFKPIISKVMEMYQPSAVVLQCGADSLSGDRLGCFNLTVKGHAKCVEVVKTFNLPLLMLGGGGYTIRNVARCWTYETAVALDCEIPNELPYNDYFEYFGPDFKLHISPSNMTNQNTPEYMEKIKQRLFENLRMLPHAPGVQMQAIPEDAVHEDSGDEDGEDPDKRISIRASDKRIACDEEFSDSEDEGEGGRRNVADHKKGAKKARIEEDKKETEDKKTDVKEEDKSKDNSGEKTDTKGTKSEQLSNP

Histone deacetylase 1 = Histone deacetylase 1 (Homo sapiens, UniProt Q13547); experiment: Inhibition of human recombinant HDAC1 expressed in baculovirus infected insect high5 cells using Ac-Lys-Tyr-Lys (epsilon-acetyl)-AMC as substrate after 3 to 24 hrs by fluorescence assay
Sequence of Histone deacetylase 1 (Q13547 whole entry): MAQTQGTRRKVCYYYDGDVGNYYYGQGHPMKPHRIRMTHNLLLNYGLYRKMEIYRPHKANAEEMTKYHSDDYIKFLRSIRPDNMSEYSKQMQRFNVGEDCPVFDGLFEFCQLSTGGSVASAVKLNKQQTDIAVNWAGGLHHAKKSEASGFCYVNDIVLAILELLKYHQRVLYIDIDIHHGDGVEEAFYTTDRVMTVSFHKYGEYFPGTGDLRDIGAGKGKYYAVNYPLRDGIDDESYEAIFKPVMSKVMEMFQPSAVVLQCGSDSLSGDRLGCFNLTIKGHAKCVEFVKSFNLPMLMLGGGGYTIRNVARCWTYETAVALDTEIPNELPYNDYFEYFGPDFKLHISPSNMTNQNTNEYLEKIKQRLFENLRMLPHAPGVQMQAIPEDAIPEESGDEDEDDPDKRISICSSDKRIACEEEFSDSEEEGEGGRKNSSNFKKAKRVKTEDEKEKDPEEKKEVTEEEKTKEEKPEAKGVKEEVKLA

HCT-116 = experiment: cells; conditions: Homo sapiens, HCT-116, 72 h
Description: Antiproliferative activity against human HCT116 cells assessed as cell viability after 72 hrs by MTT assay

A549 = experiment: Antiproliferative activity against human A549 cells assessed as cell viability after 72 hrs by MTT assay; format: functional, cell-based; conditions: A549, 72 h
Histone deacetylase 3 = Histone deacetylase 3 (Homo sapiens, UniProt O15379); experiment: Inhibition of human recombinant HDAC3 expressed in baculovirus infected insect high5 cells using Ac-Lys-Tyr-Lys (epsilon-acetyl)-AMC as substrate after 3 to 24 hrs by fluorescence assay
Sequence of Histone deacetylase 3 (O15379 whole entry): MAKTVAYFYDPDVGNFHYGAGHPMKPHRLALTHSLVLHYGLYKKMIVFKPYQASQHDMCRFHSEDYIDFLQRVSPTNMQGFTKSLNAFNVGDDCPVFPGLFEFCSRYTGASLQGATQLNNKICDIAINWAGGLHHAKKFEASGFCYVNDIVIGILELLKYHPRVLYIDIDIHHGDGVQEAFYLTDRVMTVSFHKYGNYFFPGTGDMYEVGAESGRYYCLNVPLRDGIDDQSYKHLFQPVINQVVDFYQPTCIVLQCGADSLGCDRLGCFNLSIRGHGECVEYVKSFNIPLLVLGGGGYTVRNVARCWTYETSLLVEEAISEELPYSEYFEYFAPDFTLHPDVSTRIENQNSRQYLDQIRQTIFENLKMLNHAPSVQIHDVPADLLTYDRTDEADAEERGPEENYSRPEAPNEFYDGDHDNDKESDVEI

Sequence of DNA topoisomerase 2-alpha (Homo sapiens) (P11388 whole entry): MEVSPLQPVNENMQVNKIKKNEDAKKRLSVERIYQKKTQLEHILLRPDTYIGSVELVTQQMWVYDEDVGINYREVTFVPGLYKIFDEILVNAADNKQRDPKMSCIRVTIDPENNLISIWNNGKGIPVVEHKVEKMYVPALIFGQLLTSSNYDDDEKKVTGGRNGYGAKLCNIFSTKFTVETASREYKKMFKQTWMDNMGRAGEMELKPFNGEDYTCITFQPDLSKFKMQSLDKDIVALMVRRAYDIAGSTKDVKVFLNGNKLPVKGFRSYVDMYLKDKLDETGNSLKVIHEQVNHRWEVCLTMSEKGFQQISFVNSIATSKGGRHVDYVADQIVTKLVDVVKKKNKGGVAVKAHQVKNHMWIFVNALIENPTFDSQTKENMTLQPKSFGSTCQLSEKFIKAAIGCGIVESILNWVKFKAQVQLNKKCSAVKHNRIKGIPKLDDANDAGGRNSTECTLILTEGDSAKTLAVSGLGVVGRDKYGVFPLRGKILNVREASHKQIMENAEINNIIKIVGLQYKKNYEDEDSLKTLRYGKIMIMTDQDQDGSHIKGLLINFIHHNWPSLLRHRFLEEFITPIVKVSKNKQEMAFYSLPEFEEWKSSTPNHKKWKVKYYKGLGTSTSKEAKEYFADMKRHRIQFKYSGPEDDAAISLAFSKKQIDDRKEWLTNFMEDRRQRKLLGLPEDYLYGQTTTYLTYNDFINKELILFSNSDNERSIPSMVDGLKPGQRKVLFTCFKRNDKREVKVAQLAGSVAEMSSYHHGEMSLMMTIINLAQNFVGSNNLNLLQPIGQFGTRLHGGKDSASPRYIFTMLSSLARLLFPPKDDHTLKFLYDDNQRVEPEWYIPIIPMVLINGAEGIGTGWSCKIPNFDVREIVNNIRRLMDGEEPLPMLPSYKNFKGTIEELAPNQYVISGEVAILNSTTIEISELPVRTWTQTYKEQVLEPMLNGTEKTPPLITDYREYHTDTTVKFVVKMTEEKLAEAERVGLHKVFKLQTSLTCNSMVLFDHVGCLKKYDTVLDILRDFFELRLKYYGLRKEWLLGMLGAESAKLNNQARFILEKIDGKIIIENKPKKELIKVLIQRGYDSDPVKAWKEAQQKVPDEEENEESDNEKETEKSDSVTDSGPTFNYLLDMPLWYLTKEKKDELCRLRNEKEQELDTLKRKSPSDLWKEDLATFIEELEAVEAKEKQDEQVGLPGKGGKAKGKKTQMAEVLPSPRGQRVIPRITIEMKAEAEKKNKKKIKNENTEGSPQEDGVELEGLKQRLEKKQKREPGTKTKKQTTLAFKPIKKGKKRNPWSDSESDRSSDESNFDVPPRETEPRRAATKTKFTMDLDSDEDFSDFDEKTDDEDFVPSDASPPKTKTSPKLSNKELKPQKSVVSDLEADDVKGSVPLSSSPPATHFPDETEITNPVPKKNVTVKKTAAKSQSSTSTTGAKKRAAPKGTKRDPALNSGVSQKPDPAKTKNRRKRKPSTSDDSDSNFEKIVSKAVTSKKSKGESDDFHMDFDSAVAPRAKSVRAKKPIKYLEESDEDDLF

Row | Compound | inhibition [1] | pIC50 [2] | pIC50 (Histone deacetylase 2) | pIC50 (Histone deacetylase 1) | pIC50 (HCT-116) | pIC50 (A549) | pIC50 (Histone deacetylase 3)
1 | COc1cc([C@@H]2c3cc4c(cc3[C@@H](Nc3ccc(NC(=O)CCCCCCC(=O)NO)cc3)[C@H]3COC(=O)[C@H]23)OCO4)cc(OC)c1O | Active | 7.05 | 6.85 | 6.68 | 5.90 | 4.73 | 6.64
2 | COc1cc([C@@H]2c3cc4c(cc3[C@@H](O[C@@H]3O[C@@H]5CO[C@@H](C)O[C@H]5[C@H](O)[C@H]3O)[C@H]3COC(=O)[C@H]23)OCO4)cc(OC)c1O [ETOPOSIDE] | Active | – | – | < 4.47 | 6.06 | – | –
3 | COc1cc([C@@H]2c3cc4c(cc3[C@@H](Nc3cccc(OCCCCCCC(=O)Nc5ccccc5N)c3)[C@H]3COC(=O)[C@H]23)OCO4)cc(OC)c1O | – | – | 4.27 | – | 6.04 | 5.95 | –
4 | COc1cc([C@@H]2c3cc4c(cc3[C@@H](Nc3ccccc3OCCCCCCCC(=O)NO)[C@H]3COC(=O)[C@H]23)OCO4)cc(OC)c1O | – | 6.66 | – | 6.76 | 4.95 | – | 6.66
5 | COc1cc([C@@H]2c3cc4c(cc3[C@@H](Nc3ccccc3OCCCCCCC(=O)NO)[C@H]3COC(=O)[C@H]23)OCO4)cc(OC)c1O | Active | 7.57 | – | 7.14 | 4.95 | – | 6.81
6 | COc1cc([C@@H]2c3cc4c(cc3[C@@H](Nc3ccc(OCCCCCCC(=O)Nc5ccccc5N)cc3)[C@H]3COC(=O)[C@H]23)OCO4)cc(OC)c1O | Active | – | 4.98 | 4.85 | 6.28 | 5.94 | 4.93
7 | COc1cc([C@@H]2c3cc4c(cc3[C@@H](Nc3ccccc3OCCCCC(=O)NO)[C@H]3COC(=O)[C@H]23)OCO4)cc(OC)c1O | – | 7.08 | – | 6.43 | 4.78 | – | 6.05
8 | COc1cc([C@@H]2c3cc4c(cc3[C@@H](Nc3cccc(NC(=O)CCCCCC(=O)NO)c3)[C@H]3COC(=O)[C@H]23)OCO4)cc(OC)c1O | – | 6.80 | – | 6.42 | 4.71 | – | 6.23
9 | O=C(CCCCCCC(=O)Nc1ccccc1)NO | inactive | – | – | – | – | – | –
10 | COc1cc([C@@H]2c3cc4c(cc3[C@@H](Nc3cccc(OCCCCCC(=O)NO)c3)[C@H]3COC(=O)[C@H]23)OCO4)cc(OC)c1O | – | 7.82 | – | 7.35 | 5.24 | – | 7.09
11 | COc1cc([C@@H]2c3cc4c(cc3[C@@H](Nc3ccc(NC(=O)CCCCC(=O)NO)cc3)[C@H]3COC(=O)[C@H]23)OCO4)cc(OC)c1O | – | 5.97 | – | 5.55 | 5.42 | – | 5.77
12 | COc1cc([C@@H]2c3cc4c(cc3[C@@H](Nc3ccc(OCCCCCCCC(=O)NO)cc3)[C@H]3COC(=O)[C@H]23)OCO4)cc(OC)c1O | – | 7.28 | – | 7.06 | 5.43 | – | 7.28
13 | COc1cc([C@@H]2c3cc4c(cc3[C@@H](Nc3ccc(OCCCCC(=O)NO)cc3)[C@H]3COC(=O)[C@H]23)OCO4)cc(OC)c1O | – | 7.06 | – | 6.90 | 5.28 | – | 6.62
14 | COc1cc([C@@H]2c3cc4c(cc3[C@@H](Nc3ccccc3OCCCCCC(=O)NO)[C@H]3COC(=O)[C@H]23)OCO4)cc(OC)c1O | – | 7.70 | – | 6.84 | 5.09 | – | 6.73
15 | COc1cc([C@@H]2c3cc4c(cc3[C@@H](Nc3cccc(OCCCCCCC(=O)NO)c3)[C@H]3COC(=O)[C@H]23)OCO4)cc(OC)c1O | Active | 8.25 | – | 7.96 | 5.48 | – | 8.02
16 | COc1cc([C@@H]2c3cc4c(cc3[C@@H](Nc3cccc(OCCCCC(=O)NO)c3)[C@H]3COC(=O)[C@H]23)OCO4)cc(OC)c1O | – | 7.38 | – | 7.03 | 5.20 | – | 6.95
17 | COc1cc([C@@H]2c3cc4c(cc3[C@@H](Nc3cccc(OCCCCCCCC(=O)NO)c3)[C@H]3COC(=O)[C@H]23)OCO4)cc(OC)c1O | – | 7.16 | – | 7.41 | 5.28 | – | 7.16
18 | COc1cc([C@@H]2c3cc4c(cc3[C@@H](Nc3ccc(NC(=O)CCCCCC(=O)NO)cc3)[C@H]3COC(=O)[C@H]23)OCO4)cc(OC)c1O | – | 6.89 | – | 6.23 | 5.53 | – | 6.28
19 | COc1cc([C@@H]2c3cc4c(cc3[C@@H](Nc3cccc(NC(=O)CCCCCCC(=O)NO)c3)[C@H]3COC(=O)[C@H]23)OCO4)cc(OC)c1O | Active | 7.40 | – | 7.00 | 5.07 | – | 6.89
20 | COc1cc([C@@H]2c3cc4c(cc3[C@@H](Nc3ccccc3OCCCC(=O)NO)[C@H]3COC(=O)[C@H]23)OCO4)cc(OC)c1O | – | 6.45 | – | 6.24 | 4.54 | – | 5.84
21 | COc1cc([C@@H]2c3cc4c(cc3[C@@H](Nc3ccc(OCCCC(=O)NO)cc3)[C@H]3COC(=O)[C@H]23)OCO4)cc(OC)c1O | – | 6.67 | – | 6.61 | 5.27 | – | 6.71
22 | COc1cc([C@@H]2c3cc4c(cc3[C@@H](Nc3ccc(OCCCCCC(=O)NO)cc3)[C@H]3COC(=O)[C@H]23)OCO4)cc(OC)c1O | – | 7.59 | – | 6.68 | 5.31 | – | 7.16
23 | COc1cc([C@@H]2c3cc4c(cc3[C@@H](Nc3cccc(OCCCC(=O)NO)c3)[C@H]3COC(=O)[C@H]23)OCO4)cc(OC)c1O | – | 6.39 | – | 6.41 | 4.53 | – | 6.12
24 | Nc1ccccc1NC(=O)c1ccc(CNc2nccc(-c3cccnc3)n2)cc1 [MOCETINOSTAT] | inactive | – | – | – | 5.80 | – | –
25 | COc1cc([C@@H]2c3cc4c(cc3[C@@H](Nc3ccc(OCCCCCCC(=O)NO)cc3)[C@H]3COC(=O)[C@H]23)OCO4)cc(OC)c1O | Active | 7.80 | – | 7.54 | 5.30 | – | 7.31
26 | COc1cc([C@@H]2c3cc4c(cc3[C@@H](Nc3cccc(NC(=O)CCCCC(=O)NO)c3)[C@H]3COC(=O)[C@H]23)OCO4)cc(OC)c1O | – | 6.28 | – | 5.84 | 4.85 | – | 5.68

Reference: ChEMBL document CHEMBL2439983, “The discovery and optimization of novel dual inhibitors of topoisomerase II and histone deacetylase” (Bioorg Med Chem, 2013)
